Counter-ions that a name gives are not always drawn.

The source of these data is patent EP4567035A1, “NOVEL COMPOUND AS HYPOXIA-INDUCIBLE FACTOR 1(HIF-1) INHIBITOR OR VASCULAR ENDOTHELIAL GROWTH FACTOR (VEGF) INHIBITOR, AND PHARMACEUTICAL COMPOSITION COMPRISING SAME” (Nextgen Bioscience Co., Ltd., priority 2022, dated 2024).

T1 sequence (Q16665 whole entry): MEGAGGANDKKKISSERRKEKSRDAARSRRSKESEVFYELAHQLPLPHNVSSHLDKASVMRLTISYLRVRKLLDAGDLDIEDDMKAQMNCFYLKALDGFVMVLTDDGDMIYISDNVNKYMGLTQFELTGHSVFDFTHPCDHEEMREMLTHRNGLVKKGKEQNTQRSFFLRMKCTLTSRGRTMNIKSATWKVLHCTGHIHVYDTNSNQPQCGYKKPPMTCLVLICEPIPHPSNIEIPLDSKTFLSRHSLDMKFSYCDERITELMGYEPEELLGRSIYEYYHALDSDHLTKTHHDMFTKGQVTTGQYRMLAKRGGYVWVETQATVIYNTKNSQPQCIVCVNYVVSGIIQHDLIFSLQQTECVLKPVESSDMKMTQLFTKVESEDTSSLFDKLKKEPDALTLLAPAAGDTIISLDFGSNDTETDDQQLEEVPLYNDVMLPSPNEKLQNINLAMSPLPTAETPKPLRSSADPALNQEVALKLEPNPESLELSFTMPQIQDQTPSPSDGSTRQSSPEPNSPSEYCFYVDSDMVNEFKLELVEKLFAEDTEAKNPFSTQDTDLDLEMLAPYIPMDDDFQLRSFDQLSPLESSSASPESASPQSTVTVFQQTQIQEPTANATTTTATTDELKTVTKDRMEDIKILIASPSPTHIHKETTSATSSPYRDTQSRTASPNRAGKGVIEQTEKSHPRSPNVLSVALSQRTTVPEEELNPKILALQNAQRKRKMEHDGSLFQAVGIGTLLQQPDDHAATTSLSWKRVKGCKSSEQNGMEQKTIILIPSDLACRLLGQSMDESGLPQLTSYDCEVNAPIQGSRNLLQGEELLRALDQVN

The first assay addresses T1, HIF-1α (Homo sapiens, UniProt Q16665).
T1 construct: endogenous in cells; host or cells: ARPE-19 (ATCC CRL-2302)
Briefly: Analysis of HIF-1α protein expression (Western blot) in ARPE-19 cells under mixed hypoxic condition. In kind it is cell-based. As to conditions: mixed hypoxic condition (1% oxygen + CoCl2) for 1 hour, concentration range at which HIF-1α expression is reduced by 50% vs untreated control, read-out: IC50 HIF-1α Hypoxia (1 hour). Here is the method:
ARPE-19 cells (Human retinal pigment epithelial cells, ATCC CRL-2302) were cultured in DMEM/F12 (LM002-08, Welgene) medium containing 10% fetal bovine serum (FBS, 16000-044, Gibco) in an incubator at 37°C with 5% carbon dioxide. When the cells grew sufficiently, they were cultured in experimental culture dishes for protein isolation and medium supernatant acquisition.
Cells were detached from the culture dish using TrypLE™ Express (Gibco). After centrifugation at 1000 rpm for 3 minutes, the supernatant was removed. The cells were counted and seeded into new culture dishes. Normoxic conditions were maintained by culturing the cells in a 37°C incubator with 5% carbon dioxide, and hypoxic conditions were maintained by culturing the cells in a hypoxic incubator with 1% oxygen, 5% carbon dioxide, and 94% nitrogen gas.
In a disease of macular degeneration, hypoxia is a very important condition, and since the expression of downstream genes is regulated by HIF-1α, a transcription factor that is stabilized in hypoxic conditions, the following experiment was conducted to confirm this.
Mixed hypoxic condition was used for HIF-1α stability experiments, in which hypoxia was induced with 1% oxygen and the stability of HIF-1α was enhanced by treatment with cobalt chloride (CoCl2).
The compounds of each Example were diluted to 0.1 nM, 1 nM, 3 nM, 10 nM, 30 nM, 100 nM, 300 nM, 1 µM, and 10 µM in DMEM/F12 medium without fetal bovine serum, pretreated for 16 hours or 2 hours, and cultured for 1 hour or 24 hours in a mixed hypoxic condition. The cell medium was discarded, and protein lysates were obtained by rapidly treating with protein lysis buffer (RIPA Lysis and Extraction buffer, Thermo Fisher Scientific). LDS (4X Bolt ™ LDS Sample buffer) and reducing agent (10X Bolt ™ Sample Reducing Agent) were added together to the protein lysate, and heated at 70°C for 10 minutes. The lysate was separated by electrophoresis on a 4-12% Bis-Tris gel, transferred to a PVDF membrane, and blocked with 3% BSA (Albumin, Bovine, Fraction V, MPbio). The membrane was incubated overnight at 4°C with a mixture of anti-HIF-1α (ab179483, abcam) and anti-b-actin (MA515739, Invitrogen) antibodies at a ratio of 1:4000. The following day, the membrane was treated with a peroxidase-conjugated secondary antibody for 1 hour at room temperature, and the target protein was expressed using an ECL solution (Clarity ™ Western ECL substrate, Bio-rad) and quantified.
Based on the results of the expression level of HIF-1α in cells treated with compounds diluted from 10 µM to 0.1 nM, the concentration range of the compound at which the expression level of HIF-1α was reduced by 50% or less compared to the untreated control group was derived.
In general terms: A western blot detects proteins with antibodies after separation by electrophoresis.
Take `Cn1cc(-c2cccc(C3(NC(=O)c4ncnc5nc(C6CCCC6)[nH]c45)CC3)c2)cn1` [Example 6, 8-Cyclopentyl-N-(1-(3-(1-methyl-1H-pyrazol-4-yl)phenyl)cyclopropyl)-7H-purine-6-carboxamide]: the DC50 fell in the range of 0.1 to 1 µM.

In the case of `O=C(NCc1cc(F)cc(Br)c1)c1ncnc2nc(C3CCCC3)[nH]c12` [Example 14, N-(3-bromo-5-fluorobenzyl)-8-cyclopentyl-7H-purine-6-carboxamide], the DC50 fell in the range of 0.1 to 1 µM.

Consider `C[Si](C)(C)CCOCn1c(C2CCCC2)nc2ncnc(C(=O)NCc3cc(F)cc(-c4cnn(-c5cccc(C#N)c5)c4)c3)c21` [Example 22, N-(3-(1-(3-cyanophenyl)-1H-pyrazol-4-yl)-5-fluorobenzyl)-8-cyclopentyl-7-((2-(trimethylsilyl)ethoxy)methyl)-7H-purine-6-carboxamide], for which the DC50 is 0.1 to 1 µM.

Consider `Cn1c(C2CCCC2)nc2ncnc(C(=O)NCc3cc(F)cc(-c4cnn(-c5ccc(F)cc5)c4)c3)c21` [Example 55, 8-Cyclopentyl-N-(3-fluoro-5-(1-(4-fluorophenyl)-1H-pyrazol-4-yl)benzyl)-7-methyl-7H-purine-6-carboxamide], for which the DC50 was in the range of 0.1 to 1 µM.

Regarding `O=C(NCc1cc(F)cc(-c2cnn(-c3ccc(F)cc3)c2)c1)c1nc(Cl)nc2nc(C3CCCC3)[nH]c12` [Example 61, 2-Chloro-8-cyclopentyl-N-(3-fluoro-5-(1-(4-fluorophenyl)-1H-pyrazol-4-yl)benzyl)-7H-purine-6-carboxamide], the DC50 is 0.1 to 1 µM.

`Cn1cc(-c2cc(F)cc(CNC(=O)c3ncnc4nc([C@@H]5CCCN5)[nH]c34)c2)cn1` [Example 62, (S)-N-(3-fluoro-5-(1-methyl-1H-pyrazol-4-yl)benzyl)-8-(pyrrolidin-2-yl)-7H-purine-6-carboxamide hydrochloride]: the DC50 fell in the range of 1 to 10 µM.

On to `Cn1cc(-c2cc(F)cc(CNC(=O)c3ncnc4nc([C@H]5CCCN5C(=O)OCc5ccccc5)[nH]c34)c2)cn1` [Example 64, Benzyl (R)-2-(6-((3-fluoro-5-(1-methyl-1H-pyrazol-4-yl)benzyl)carbamoyl)-7H-purin-8-yl)pyrrolidine-1-carboxylate], for which the DC50 was in the range of 1 to 10 µM.

Consider `Cn1cc(-c2cc(F)cc(CNC(=O)c3ncnc4nc([C@H]5CCCN5)[nH]c34)c2)cn1` [Example 65, (R)-N-(3-fluoro-5-(1-methyl-1H-pyrazol-4-yl)benzyl)-8-(pyrrolidin-2-yl)-7H-purine-6-carboxamide hydrochloride], for which the DC50 lay in the range of 1 to 10 µM.

On to `CC(C)N1CCC[C@H]1c1nc2ncnc(C(=O)NCc3cc(F)cc(-c4cnn(C)c4)c3)c2[nH]1` [Example 67, (S)-N-(3-fluoro-5-(1-methyl-1H-pyrazol-4-yl)benzyl)-8-(1-isopropylpyrrolidin-2-yl)-7H-purine-6-carboxamide], for which the DC50 lay in the range of 1 to 10 µM.

As for `CN1CCC[C@@H]1c1nc2ncnc(C(=O)NCc3cccc(F)c3)c2[nH]1` [Example 68, (R)-N-(3-fluorobenzyl)-8-(1-methylpyrrolidin-2-yl)-7H-purine-6-carboxamide], the DC50 lay within 1 to 10 µM.

Regarding `Cn1cc(-c2cc(F)cc(CNC(=O)c3ncnc4nc(C5CCN(C(=O)OCc6ccccc6)CC5)[nH]c34)c2)cn1` [Example 69, Benzyl 4-(6-((3-fluoro-5-(1-methyl-1H-pyrazol-4-yl)benzyl)carbamoyl)-7H-purin-8-yl)piperidine-1-carboxylate], the DC50 lay in the range of 0.1 to 1 µM.

`Cn1cc(-c2cc(F)cc(CNC(=O)c3ncnc4nc(C5CCNCC5)[nH]c34)c2)cn1` [Example 70, N-(3-fluoro-5-(1-methyl-1H-pyrazol-4-yl)benzyl)-8-(piperidin-4-yl)-7H-purine-6-carboxamide hydrochloride]: the DC50 was 0.1 to 1 µM.

For `CN1CCC(c2nc3ncnc(C(=O)NCc4cc(F)cc(-c5cnn(C)c5)c4)c3[nH]2)CC1` [Example 71, N-(3-fluoro-5-(1-methyl-1H-pyrazol-4-yl)benzyl)-8-(1-methylpiperidin-4-yl)-7H-purine-6-carboxamide], the DC50 was 1 to 10 µM.

Regarding `Cn1cc(-c2cc(F)cc(CNC(=O)c3ncnc4nc(CNC(=O)OCc5ccccc5)[nH]c34)c2)cn1` [Example 72, Benzyl ((6-((3-fluoro-5-(1-methyl-1H-pyrazol-4-yl)benzyl)carbamoyl)-7H-purin-8-yl)methyl)carbamate], the DC50 fell in the range of 1 to 10 µM.

As for `Cn1cc(-c2cc(F)cc(CNC(=O)c3ncnc4nc(CN)[nH]c34)c2)cn1` [Example 73, 8-(Aminomethyl)-N-(3-fluoro-5-(1-methyl-1H-pyrazol-4-yl)benzyl)-7H-purine-6-carboxamide], the DC50 was 1 to 10 µM.

Regarding `Cn1cc(-c2cc(F)cc(CNC(=O)c3ncnc4nc[nH]c34)c2)cn1` [Example 74, N-(3-fluoro-5-(1-methyl-1H-pyrazol-4-yl)benzyl)-7H-purine-6-carboxamide], the DC50 fell in the range of 1 to 10 µM.

Regarding `Cn1cc(-c2cc(F)cc(CNC(=O)c3ncnc4nc(C5CCN(C(=O)OCc6ccccc6)C5)[nH]c34)c2)cn1` (stereo not drawn) [Example 75, Benzyl 3-(6-((3-fluoro-5-(1-methyl-1H-pyrazol-4-yl)benzyl)carbamoyl)-7H-purin-8-yl)pyrrolidine-1-carboxylate], the DC50 was 0.1 to 1 µM.

In the case of `Cn1cc(-c2cc(F)cc(CNC(=O)c3ncnc4nc(C5CCNC5)[nH]c34)c2)cn1` (stereo not drawn) [Example 76, N-(3-fluoro-5-(1-methyl-1H-pyrazol-4-yl)benzyl)-8-(pyrrolidin-3-yl)-7H-purine-6-carboxamide hydrochloride], the DC50 was in the range of 1 to 10 µM.

As for `CN1CCC(c2nc3ncnc(C(=O)NCc4cc(F)cc(-c5cnn(C)c5)c4)c3[nH]2)C1` (stereo not drawn) [Example 79, N-(3-fluoro-5-(1-methyl-1H-pyrazol-4-yl)benzyl)-8-(1-methylpyrrolidin-3-yl)-7H-purine-6-carboxamide], the DC50 is 1 to 10 µM.

Still in this assay, the particulars now being: values marked * in the table, mixed hypoxic condition (1% oxygen + CoCl2) for 24 hours, concentration range at which HIF-1α expression is reduced by 50% vs untreated control, read-out: IC50 HIF-1α, Hypoxia(24h).
For the compound `O=C(NCc1cc(F)cc(-c2cnn(-c3ccc(F)cc3)c2)c1)c1ncnc2nc(C3CCOC3)[nH]c12` (stereo not drawn) [Example 89, N-(3-fluoro-5-(1-(4-fluorophenyl)-1H-pyrazol-4-yl)benzyl)-8-(tetrahydrofuran-3-yl)-7H-purine-6-carboxamide], the DC50 was in the range of 0.1 to 1 µM.

`C[C@@H](NC(=O)c1ncnc2nc(C3CCCC3)[nH]c12)c1cccc(-c2cnn(-c3ccc(F)cc3)c2)c1` [Example 90, (R)-8-cyclopentyl-N-(1-(3-(1-(4-fluorophenyl)-1H-pyrazol-4-yl)phenyl)ethyl)-7H-purine-6-carboxamide]: the DC50 lay within 0.1 to 1 µM.

Turning to `C[C@H](NC(=O)c1ncnc2nc(C3CCCC3)[nH]c12)c1cccc(-c2cnn(-c3ccc(F)cc3)c2)c1` [Example 91, (S)-8-cyclopentyl-N-(1-(3-(1-(4-fluorophenyl)-1H-pyrazol-4-yl)phenyl)ethyl)-7H-purine-6-carboxamide], the DC50 is 1 to 10 µM.

For the compound `O=C(NCCc1cccc(-c2cnn(-c3ccc(F)cc3)c2)c1)c1ncnc2nc(C3CCCC3)[nH]c12` [Example 94, 8-Cyclopentyl-N-(3-(1-(4-fluorophenyl)-1H-pyrazol-4-yl)phenethyl)-7H-purine-6-carboxamide], the DC50 lay in the range of 0.1 to 1 µM.

Consider `O=C(NCc1ccc(F)c(-c2cnn(-c3ccc(F)cc3)c2)c1)c1ncnc2nc(C3CCCC3)[nH]c12` [Example 96, 8-Cyclopentyl-N-(4-fluoro-3-(1-(4-fluorophenyl)-1H-pyrazol-4-yl)benzyl)-7H-purine-6-carboxamide], for which the DC50 fell in the range of 0.1 to 1 µM.
